Read-outs that look alike come from different tables or passages of the source.
Tests used:
[1] = test system: AR protein in RPE cells (BCRP-mediated transport); assay: Immunocytochemical analysis of nuclear-localized AR protein in RPE cells; format: cell-based, rat; details: 50 μmol/L novobiocin and/or 3 nmol/L dihydrotestosterone, 14 hours; immunocytochemistry, n>200 cells/group
[2] = limiting use in vivo; cited from earlier work
BCRP [3] = target: T1, BCRP (Rattus norvegicus, UniProt Q80W57); format: cell-based; details: RPE cells
T1 construct: the Mx-RPE cells have a higher level of BCRP activity than RPE cells; endogenous in cells; host or cells: Mx-RPE (mitoxantrone-resistant subline of rat RPE cells)
T1 sequence (Q80W57 1-657): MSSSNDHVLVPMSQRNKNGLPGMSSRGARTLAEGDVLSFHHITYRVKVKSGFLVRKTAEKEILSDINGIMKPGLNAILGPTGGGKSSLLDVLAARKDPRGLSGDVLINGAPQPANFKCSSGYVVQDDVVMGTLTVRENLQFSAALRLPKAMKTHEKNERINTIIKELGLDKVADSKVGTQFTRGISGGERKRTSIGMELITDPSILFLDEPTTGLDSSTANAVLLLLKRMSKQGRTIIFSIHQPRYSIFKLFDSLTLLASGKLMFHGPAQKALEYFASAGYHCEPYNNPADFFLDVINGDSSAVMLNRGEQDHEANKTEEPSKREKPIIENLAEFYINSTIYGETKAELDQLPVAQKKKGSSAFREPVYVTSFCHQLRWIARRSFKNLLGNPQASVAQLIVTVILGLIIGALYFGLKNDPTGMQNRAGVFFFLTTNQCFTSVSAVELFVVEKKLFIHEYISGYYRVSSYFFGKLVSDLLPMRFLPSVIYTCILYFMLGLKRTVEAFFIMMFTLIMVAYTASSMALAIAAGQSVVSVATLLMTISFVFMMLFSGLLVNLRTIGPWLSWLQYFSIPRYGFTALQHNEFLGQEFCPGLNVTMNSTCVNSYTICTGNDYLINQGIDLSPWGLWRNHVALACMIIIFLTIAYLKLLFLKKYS
Excerpt: (§1) Data for Hoechst 33342 efflux represent two independent experiments (n>1,000 cells, *** P<0.0001).
(§2) Additionally, novobiocin and fumitremorgin C were compared in RPE cells as inhibitors of BCRP-mediated efflux of Hoechst 33342, the marker utilized to identify the side population phenotype of stem cells. Fumitremorgin C is a specific inhibitor for BCRP-mediated transport.

BCRP [4] = target: T1, BCRP; format: cell-based; details: Mx-RPE cells
Excerpt: as §1
Rat prostate progenitor (stem cell-like) cell lines (RPE, DP2, DP3, and DP4) were established from regenerating prostates of Fischer-344 rats and were maintained in prostate growth media (Presnell et al., Prostate Cancer Prostatic Dis (1999); 2:257-63) supplemented with 2% fetal bovine serum (FBS; Hyclone, Logan, UT) without androgen supplementation. […] A subpopulation of RPE cells was selected for resistance to mitoxantrone (Mx-RPE) by continuous culture in increasing concentrations of mitoxantrone (0.2-4 μmol/L; Sigma).
Additionally, novobiocin and fumitremorgin C were compared in RPE cells as inhibitors of BCRP-mediated efflux of Hoechst 33342, the marker utilized to identify the side population phenotype of stem cells. Fumitremorgin C is a specific inhibitor for BCRP-mediated transport. […] The moderate increase in nuclear Hoechst 33342 dye in RPE cells with inhibited BCRP function reflects a combination of the limited dynamic range of digital imaging technology and the constitutive expression of MDR-1 in the RPE cells (data not shown) because MDR-1 also effectively transports Hoechst 33342 dye; however, novobiocin and fumitremorgin C inhibit only the BCRP-mediated component of Hoechst efflux, not MDR-1 function (Doyle et al., Oncogene (2003); 22:7340-58; Shiozawa et al., Int. J. Cancer (2004); 108:146-51).

[5] = cited from earlier work
DP3 cell line = assay: Intracellular [3H]dihydrotestosterone accumulation in BCRP-lacking DP3 control cell line; format: cell-based, rat; details: DP3 cell line (lacks BCRP)
Excerpt: as §2

[6] = test system: AR protein in RPE cells (BCRP function); assay: Immunoblot analysis of AR protein in RPE cell lysates; format: cell-based, rat; details: 50 μmol/L novobiocin and/or 3 nmol/L dihydrotestosterone; normalized to actin
TRAMP mice = assay: Foci of SV40Tag+ cells in prostates of castrated TRAMP mice treated with novobiocin; format: in vivo, mouse; details: novobiocin 25 mg/kg/5 times a week
Excerpt: In this model, the PB-SV40 large T antigen transgene (SV40Tag) is expressed specifically in the epithelial cells of the murine prostate. Cells expressing the SV40Tag transgene can be detected by immunohistological methods using labeled monoclonal antibodies to SV40Tag. Adenocarcinoma of the prostate in TRAMP mice arises as early as eight weeks of age and is characterized by tumor cells that uniformly express high levels of AR and that regress upon castration. In contrast, poorly differentiated neuroendocrine-like carcinomas in TRAMP mice are characterized by expression of the neuroendocrine marker synaptophysin, and an absence, or weak and heterogeneous expression of AR. Neuroendocrine-like carcinomas are rare in young TRAMP mice, but arise rapidly in mice that are castrated between 12 and 14 weeks of age (Kaplan-Lefko et al., Prostate (2003); 55:219-37; Johnson et al., Prostate (2005); 62:322-38).
Treatment of the TRAMP mice with novobiocin (25 mg/kg/5 times a week), or saline (physiologic saline/5 times a week), was initiated at 13 weeks of age and all mice were castrated at 14 weeks of age (1 week following initiation of treatment). TRAMP mice were treated until 19 weeks of age, at which time the prostates, lymph nodes, small intestine, and liver were harvested and processed for analysis using standard techniques. […]

C[C@]12CCC(=O)C[C@@H]1CC[C@@H]1[C@@H]2CC[C@]2(C)[C@@H](O)CC[C@@H]12 [dihydrotestosterone]
increase in the level of nuclear-localized AR in RPE cells [1]: 2.8 fold

COc1ccc2c3c([nH]c2c1)[C@H](C=C(C)C)N1C(=O)[C@@H]2CCCN2C(=O)[C@@H]1C3 [fumitremorgin C]
neurotoxicity [2]: extremely neurotoxic | increase in nuclear Hoechst 33342 compared with the DMSO control (BCRP [3]; 10 μmol/L fumitremorgin C): 2.3 fold | increase in intracellular levels of [3H]dihydrotestosterone (BCRP [4]; 10 μmol/L fumitremorgin C): 3.3 fold

CO[C@@H]1[C@@H](OC(N)=O)[C@@H](O)[C@H](Oc2ccc3c(O)c(NC(=O)c4ccc(O)c(CC=C(C)C)c4)c(=O)oc3c2C)OC1(C)C [novobiocin]
toxicity in humans [5]: well tolerated toxicity in humans | increase in retention of Hoechst 33342 (BCRP [3]; 5 mmol/L novobiocin): 1.2 fold | increase in retention of Hoechst 33342 (BCRP [3]; 10 mmol/L novobiocin): 1.45 fold | increase in the level of nuclear-localized AR in RPE cells [1]: 2.4 fold | increase in intracellular levels of [3H]dihydrotestosterone (BCRP [4]; 5 mmol/L novobiocin): 2.4 fold | increase in intracellular levels of [3H]dihydrotestosterone (BCRP [4]; 10 mmol/L novobiocin): 5.5 fold | effect on the level of accumulation of intracellular [3H]dihydrotestosterone (DP3 cell line): no effect | increase of AR protein in RPE cells (immunoblot) [6]: 7 fold | establishment of recurrent growth in TRAMP (TRAMP mice): inhibited establishment of recurrent growth | #Foci/Animal, pattern: >10 cells Differentiated (TRAMP mice; 13 to 19 weeks of age): significant increase

Source: US20060233809A1, “Method for treating prostate conditions” (priority 2005, published 2006)
